From US20240287122A1, “NOVEL GALACTOSIDE INHIBITOR OF GALECTINS” (GALECTO BIOTECH AB, priority 2020, published 2024)

What was measured:
[1] = molecular target: Galectin-3 (Homo sapiens, UniProt P17931); experiment: Fluorescence anisotropy assay, affinity for galectin-3; assay type: binding; details: compound as inhibitor of the interaction between galectin and a fluorescein tagged saccharide probe
Description: (§1) The affinity of Example 1-43 for galectins were determined by a fluorescence anisotropy assay where the compound was used as an inhibitor of the interaction between galectin and a fluorescein tagged saccharide probe as described Sörme, P., Kahl-Knutsson, B., Huflejt, M., Nilsson, U. J., and Leffler H. (2004) Fluorescence polarization as an analytical tool to evaluate galectin-ligand interactions. Anal. Biochem. 334: 36-47, (Sörme et al., 2004) and Monovalent interactions of Galectin-1 By Salomonsson, Emma; Larumbe, Amaia; Tejler, Johan; Tullberg, Erik; Rydberg, Hanna; Sundin, Anders; Khabut, Areej; Frejd, Torbjomn; Lobsanov, Yuri D.; Rini, James M.; et al, From Biochemistry (2010), 49(44), 9518-9532, (Salomonsson et al., 2010).

[2] = molecular target: Galectin-1 (Homo sapiens, UniProt P09382); experiment: Fluorescence anisotropy assay, affinity for galectin-1; assay type: binding; details: compound as inhibitor of the interaction between galectin and a fluorescein tagged saccharide probe
Galectin-1, sequence (P09382 whole entry): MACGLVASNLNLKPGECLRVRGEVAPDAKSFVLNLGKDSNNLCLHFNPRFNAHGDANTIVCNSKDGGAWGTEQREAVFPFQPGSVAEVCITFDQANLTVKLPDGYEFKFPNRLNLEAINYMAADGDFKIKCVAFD
Description: as §1

Galectin-3, sequence (P17931 whole entry): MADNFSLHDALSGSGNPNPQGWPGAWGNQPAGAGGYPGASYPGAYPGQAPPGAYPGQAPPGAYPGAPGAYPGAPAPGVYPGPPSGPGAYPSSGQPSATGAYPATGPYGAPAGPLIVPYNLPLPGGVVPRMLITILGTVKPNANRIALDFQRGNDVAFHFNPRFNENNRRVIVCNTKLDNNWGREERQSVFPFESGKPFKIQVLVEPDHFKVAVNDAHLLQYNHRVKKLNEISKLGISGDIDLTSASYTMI

CCN(CC1CCC1)C(=O)c1ncc(Br)cc1S[C@H]1OC(CO)[C@H](O)C(n2cc(-n3ccc(Cl)n3)nn2)C1OC (stereo partly drawn) [Example 25, 5-Bromo-2-[N,N-(cyclobutylmethyl)ethylcarbamoyl}pyridin-3-yl 3-[4-(3-chloro-1H-1,2-pyrazol-1-yl)-1H-1,2,3-triazol-1-yl]-3-deoxy-2-O-methyl-1-thio-α-D-galactopyranoside]
Kd [1]: 75 nM | Kd [2]: 140 nM

COC1C(n2cc(-n3ccc(Cl)n3)nn2)[C@@H](O)C(CO)O[C@@H]1Sc1cc(Br)cnc1C(=O)N(CC1CCC1)C(C)C (stereo partly drawn) [Example 26, 5-Bromo-2-[N,N-(cyclobutylmethyl)isopropylcarbamoyl]pyridin-3-yl 3-[4-(3-chloro-1H-1,2-pyrazol-1-yl)-1H-1,2,3-triazol-1-yl]-3-deoxy-2-O-methyl-1-thio-α-D-galactopyranoside]
Kd [1]: 110 nM | Kd [2]: 160 nM

COC1C(n2cc(-n3ccc(Cl)n3)nn2)[C@@H](O)C(CO)O[C@@H]1Sc1cc(Br)cnc1C(=O)N(CC1CCC1)CC1CCC1 (stereo partly drawn) [Example 27, 5-Bromo-2-[N,N-bis(cyclobutylmethyl)carbamoyl]pyridin-3-yl 3-[4-(3-chloro-1H-1,2-pyrazol-1-yl)-1H-1,2,3-triazol-1-yl]-3-deoxy-2-O-methyl-1-thio-α-D-galactopyranoside]
Kd [1]: 260 nM | Kd [2]: 380 nM

COC1C(n2cc(-n3ccc(Cl)n3)nn2)[C@@H](O)C(CO)O[C@@H]1Sc1cc(Br)cnc1C(=O)N1CCCC1 (stereo partly drawn) [Example 28, 5-Bromo-2-(pyrrolidine-1-carbonyl)pyridin-3-yl 3-[4-(3-chloro-1H-1,2-pyrazol-1-yl)-1H-1,2,3-triazol-1-yl]-3-deoxy-2-O-methyl-1-thio-α-D-galactopyranoside]
Kd [1]: 52 nM | Kd [2]: 69 nM

CCN(CC(F)(F)F)C(=O)c1ncc(Br)cc1S[C@H]1OC(CO)[C@H](O)C(n2cc(-n3ccc(Cl)n3)nn2)C1OC (stereo partly drawn) [Example 29, 5-Bromo-2-[N,N-ethyl-(2,2,2-trifluoroethyl)carbamoyl]pyridin-3-yl 3-[4-(3-chloro-1H-1,2-pyrazol-1-yl)-1H-1,2,3-triazol-1-yl]-3-deoxy-2-O-methyl-1-thio-α-D-galactopyranoside]
Kd [1]: 60 nM | Kd [2]: 100 nM

CCN(CC(C)(C)F)C(=O)c1ncc(Br)cc1S[C@H]1OC(CO)[C@H](O)C(n2cc(-n3ccc(Cl)n3)nn2)C1OC (stereo partly drawn) [Example 30, 5-Bromo-2-[N,N-ethyl(2-fluoro-2-methylpropyl)carbamoyl]pyridin-3-yl 3-[4-(3-chloro-1H-1,2-pyrazol-1-yl)-1H-1,2,3-triazol-1-yl]-3-deoxy-2-O-methyl-1-thio-α-D-galactopyranoside]
Kd [1]: 62 nM | Kd [2]: 140 nM

COC1C(n2cc(-n3ccc(Cl)n3)nn2)[C@@H](O)C(CO)O[C@@H]1Sc1cc(Br)cnc1C(=O)N(CC1CC1)C(C)C (stereo partly drawn) [Example 31, 5-Bromo-2-[N,N-(cyclopropylmethyl)isopropylcarbamoyl]pyridin-3-yl 3-[4-(3-chloro-1H-1,2-pyrazol-1-yl)-1H-1,2,3-triazol-1-yl]-3-deoxy-2-O-methyl-1-thio-α-D-galactopyranoside]
Kd [1]: 60 nM | Kd [2]: 72 nM

COC1C(n2cc(-n3ccc(Cl)n3)nn2)[C@@H](O)C(CO)O[C@@H]1Sc1cc(Br)cnc1C(=O)N(CC(C)C)C(C)C (stereo partly drawn) [Example 32, 5-Bromo-2-(N,N-isobutylisopropylcarbamoyl)pyridin-3-yl 3-[4-(3-chloro-1H-1,2-pyrazol-1-yl)-1H-1,2,3-triazol-1-yl]-3-deoxy-2-O-methyl-1-thio-α-D-galactopyranoside]
Kd [1]: 63 nM | Kd [2]: 110 nM

COC1C(n2cc(-n3ccc(Cl)n3)nn2)[C@@H](O)C(CO)O[C@@H]1Sc1cc(Br)cnc1C(=O)N(CC1CC1)OC (stereo partly drawn) [Example 33, 5-Bromo-2-[N,N-(cyclopropylmethyl)methoxycarbamoyl]pyridin-3-yl 3-[4-(3-chloro-1H-1,2-pyrazol-1-yl)-1H-1,2,3-triazol-1-yl]-3-deoxy-2-O-methyl-1-thio-α-D-galactopyranoside]
Kd [1]: 68 nM | Kd [2]: 74 nM
